These results are taken from US20250018049A1, “COMPOUNDS FOR DEGRADING CYCLIN-DEPENDENT KINASE 2 VIA UBIQUITIN PROTEOSOME PATHWAY” (NIKANG THERAPEUTICS, INC., priority 2020, published 2025).

Format in all cases: cell-based
Assay [1] addresses T1, CDK2 (Homo sapiens, UniProt P24941). In words: NanoBRET CDK2 engagement assay. As to conditions: OVCAR3 cells with stable CDK2-Luciferase vector, 24 hours treatment. More on the design: expressed in transfected cells. In a few lines: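 OVCAR3 cells stably expressing CDK2-luciferase, in Opti-MEM with 1% FBS, treated 24 h at 37° C with compound from 3 μM in ½-log steps to 0.3 nM; NanoBRET tracer present for final 2 h. Donor/acceptor emission read; engagement normalized to DMSO as 100% signal, IC50 by curve fit.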
A general note: In BRET a luciferase serves as donor, and the signal depends on an acceptor being close.

Assay [2] concerns the target T1, CDK2. In words: CDK2 HTRF assay (cellular endogenous CDK2 level). Set-up: High-Throughput Measurement of Cellular Endogenous CDK2; endogenous in cells; host or cells: OVCAR3. As to conditions: OVCAR-3; OVCAR3 cells, 24 hours, 0.3 to 10,000 nM; read-out: max degradation of CDK2. The protocol: Effects of compounds on cellular CDK2 level can be monitored by a high-throughput HTRF assay or traditional Western Blot assay.
To determine half maximal degradation concentration (DC50) values of compounds, cellular CDK2 level was measured in 96-well format using HTRF total CDK2 cellular kit (Cat #64CDK2TPEG) from Cisbio.
On Day 1, OVCAR3 cells were seeded into 96-well tissue-culture treated plates at 20,000 cells/well in 200 μL and incubated overnight at 37° C. in CO2 atmosphere. On Day 2 cells were treated with compounds at concentration ranging from 0.3 to 10,000 nM using HP D300 digital dispenser. 24 hours after compound treatment, cell culture media was removed by flicking the plate and tapping the plate against clean paper towel. Immediately 30 μL 1× lysis buffer was supplemented from the kit and the plate was incubated at room temperature on shaker for 30 min. After homogenization by pipetting up and down, 8 μL cell lysate from 96-well cell culture plate was transferred to 384-well small volume white detection plate. 2 μL premixed detection solution was added and the plate was covered with sealer. To prepare the detection solution, d2 conjugated-CDK2 antibody and Eu-cryptate conjugated CDK2 antibody were diluted into detection buffer following manufacturer's instruction. Detection plates were incubated overnight at room temperature and read on ClarioStar (BMG Labtech) in TR-FRET mode (665 nM and 620 nM). The TR-FRET ratio (665 nM/620 nM) was plotted against the compound concentration and normalized to DMSO controls. Half maximal degradation concentration (DC50) values were calculated with a four-parameter logistic fit using GraphPad Prism (version 8; La Jolla, CA). FIG. 1 provides a dose-response curve of Compound 1 in Compound Table I in cellular CDK2 HTRF assay. IC50 in FIG. 1 is the same as DC50. Compounds 1, 13, 16, 22, 23, 28, 34, 35, 36, 37, 38, 39, 42, 48, 50, 51, 53, 54, 55, 56, 57, 58, 59, 60, 61, 62, 63, 65, 66, 68, 69, 70 were tested and max degradation of CDK2 observed was from about 35% to about 90%.
Background: In TR-FRET formats the signal depends on donor and acceptor labels being close together.

The target of assay [3] is T1, CDK2. Put plainly: Phospho-Rb HTRF measurement in OVCAR3 cells (inhibition of CDK2). More on the design: High-Throughput Measurement of Cellular Endogenous CDK2; endogenous in cells; host or cells: OVCAR3. Conditions: pRB(S807/811) assay, 24 h compound treatment.

SMILES strings stand for the structures.

A word on the IC50: it is the concentration that inhibits the measured activity by half. A low value points to greater potency in that assay. With `O=C1CCC(N2Cc3cc(N4CC5CCC4CN5Cc4cccc(S(=O)(=O)N5CCC(Nc6ncc7ccc(=O)n(C8CCCC8)c7n6)CC5)c4)ccc3C2=O)C(=O)N1` (stereo not drawn) [Compound 51, 3-(5-(5-(3-((4-((8-cyclopentyl-7-oxo-7,8-dihydropyrido[2,3-d]pyrimidin-2-yl)amino)-piperidin-1-yl)sulfonyl)benzyl)-2,5-diazabicyclo[2.2.2]octan-2-yl)-1-oxoisoindolin-2-yl)piperidine-2,6-dione], the IC50 amounted to 0.198 µM on CDK2 [1] and 0.154 µM at CDK2 [3]. The Dmax at CDK2 [2] was 35 to 90%.

Take `O=C1CCC(N2Cc3cc(N4CC5CC4CN5Cc4cccc(S(=O)(=O)N5CCC(Nc6ncc7ccc(=O)n(C8CCCC8)c7n6)CC5)c4)ccc3C2=O)C(=O)N1` (stereo not drawn) [Compound 53, 3-(5-(5-(3-((4-((8-cyclopentyl-7-oxo-7,8-dihydropyrido[2,3-d]pyrimidin-2-yl)amino)-piperidin-1-yl)sulfonyl)benzyl)-2,5-diazabicyclo-[2.2.1]heptan-2-yl)-1-oxoisoindolin-2-yl)-piperidine-2,6-dione]: the values for the IC50 against CDK2 [1] and on CDK2 [3] were 0.152 µM and 0.259 µM, respectively. The Dmax at CDK2 [2] fell in the range of 35 to 90%.

As for `O=C1CCC(N2Cc3cc(N4CC5CCC(C4)N5Cc4cccc(S(=O)(=O)N5CCC(Nc6ncc7ccc(=O)n(C8CCCC8)c7n6)CC5)c4)ccc3C2=O)C(=O)N1` (stereo not drawn) [Compound 54, 3-(5-(8-(3-((4-((8-cyclopentyl-7-oxo-7,8-dihydro-pyrido[2,3-d]pyrimidin-2-yl)amino)piperidin-1-yl)sulfonyl)benzyl)-3,8-diazabicyclo[3.2.1]octan-3-yl)-1-oxoisoindolin-2-yl)piperidine-2,6-dione], the half-inhibitory concentration (IC50) on CDK2 [1] was found to be 0.214 µM; against CDK2 [3], 0.0725 µM. Further, the Dmax at CDK2 [2] was in the range of 35 to 90%.

Turning to `CC1(O)CCCC1n1c(=O)ccc2cnc(NC3CCN(S(=O)(=O)c4cccc(CN5CCN(c6ccc7c(c6)CN(C6CCC(=O)NC6=O)C7=O)CC5)c4)CC3)nc21` (stereo not drawn) [Compound 55, 3-(5-(4-(3-((4-((8-(2-hydroxy-2-methyl-cyclopentyl)-7-oxo-7,8-dihydropyrido[2,3-d]-pyrimidin-2-yl)amino)piperidin-1-yl)sulfonyl)-benzyl)piperazin-1-yl)-1-oxoisoindolin-2-yl)-piperidine-2,6-dione], the 50% inhibitory concentration (IC50) is 0.736 µM against CDK2 [1] and 0.07 µM against CDK2 [3]. Moreover, on CDK2 [2], the Dmax lay within 35 to 90%.

For `O=C1CCC(N2Cc3cc(N4CCN(Cc5cccc(S(=O)(=O)N6CCC(Nc7ncc8cc(C(F)F)c(=O)n(C9CCCC9)c8n7)CC6)c5)CC4)ccc3C2=O)C(=O)N1` (stereo not drawn) [Compound 56, 3-(5-(4-(3-((4-((8-cyclopentyl-6-(difluoromethyl)-7-oxo-7,8-dihydropyrido[2,3-d]pyrimidin-2-yl)amino)piperidin-1-yl)sulfonyl)benzyl)piperazin-1-yl)-1-oxoisoindolin-2-yl)piperidine-2,6-dione], the IC50 was 0.241 µM at CDK2 [1] and 0.067 µM on CDK2 [3]. Also, on CDK2 [2], the Dmax lay in the range of 35 to 90%.

Regarding `O=C1CCC(N2Cc3cc(N4CCC5(CC4)CN(Cc4cccc(S(=O)(=O)N6CCC(Nc7ncc8ccc(=O)n(C9CCCC9)c8n7)CC6)c4)C5)ccc3C2=O)C(=O)N1` (stereo not drawn) [Compound 57, 3-(5-(2-(3-((4-((8-cyclopentyl-7-oxo-7,8-dihydro-pyrido[2,3-d]pyrimidin-2-yl)amino)piperidin-1-yl)sulfonyl)benzyl)-2,7-diazaspiro[3.5]nonan-7-yl)-1-oxoisoindolin-2-yl)piperidine-2,6-dione], the IC50 on CDK2 [1] is 0.169 µM; against CDK2 [3], 0.0496 µM. The Dmax on CDK2 [2] was in the range of 35 to 90%.

As to `O=C1CCC(N2Cc3cc(N4CC5(CCN(Cc6cccc(S(=O)(=O)N7CCC(Nc8ncc9ccc(=O)n(C%10CCCC%10)c9n8)CC7)c6)CC5)C4)ccc3C2=O)C(=O)N1` (stereo not drawn) [Compound 58, 3-(5-(7-(3-((4-((8-cyclopentyl-7-oxo-7,8-dihydropyrido[2,3-d]pyrimidin-2-yl)amino)-piperidin-1-yl)sulfonyl)benzyl)-2,7-diazaspiro-[3.5]nonan-2-yl)-1-oxoisoindolin-2-yl)piperidine-2,6-dione], the IC50 against CDK2 [1] came to 0.291 µM; on CDK2 [3] it was 0.155 µM. For the same compound, the Dmax at CDK2 [2] was 35 to 90%.

With `O=C1CCC(N2Cc3cc(N4CCC5(CCN(Cc6cccc(S(=O)(=O)N7CCC(Nc8ncc9ccc(=O)n(C%10CCCC%10)c9n8)CC7)c6)CC5)CC4)ccc3C2=O)C(=O)N1` (stereo not drawn) [Compound 59, 3-(5-(9-(3-((4-((8-cyclopentyl-7-oxo-7,8-dihydro-pyrido[2,3-d]pyrimidin-2-yl)amino)piperidin-1-yl)sulfonyl)benzyl)-3,9-diazaspiro[5.5]undecan-3-yl)-1-oxoisoindolin-2-yl)piperidine-2,6-dione], the IC50 against CDK2 [1] stood at 0.18 µM; at CDK2 [3], 0.0482 µM. Moreover, the Dmax at CDK2 [2] lay within 35 to 90%.

Consider `O=C1CCC(N2Cc3cc(N4CC5(CN(Cc6cccc(S(=O)(=O)N7CCC(Nc8ncc9ccc(=O)n(C%10CCCC%10)c9n8)CC7)c6)C5)C4)ccc3C2=O)C(=O)N1` (stereo not drawn) [Compound 60, 3-(5-(6-(3-((4-((8-cyclopentyl-7-oxo-7,8-dihydro-pyrido[2,3-d]pyrimidin-2-yl)amino)piperidin-1-yl)sulfonyl)benzyl)-2,6-diazaspiro[3.3]heptan-2-yl)-1-oxoisoindolin-2-yl)piperidine-2,6-dione], for which the IC50 is 0.0645 µM against CDK2 [1] and 0.03 µM against CDK2 [3]. Moreover, on CDK2 [2], the Dmax is 35 to 90%.

Take `O=C1CCC(N2Cc3cc(N4CC5(CN(Cc6cccc(S(=O)(=O)N7CCC(Nc8ncc9ccc(=O)n(C%10CC%11CC%11C%10)c9n8)CC7)c6)C5)C4)ccc3C2=O)C(=O)N1` (stereo not drawn) [Compound 61, 3-(5-(6-(3-((4-((8-(bicyclo[3.1.0]hexan-3-yl)-7-oxo-7,8-dihydropyrido[2,3-d]pyrimidin-2-yl)amino)piperidin-1-yl)sulfonyl)benzyl)-2,6-diazaspiro[3.3]heptan-2-yl)-1-oxoisoindolin-2-yl)piperidine-2,6-dione]: the values for the IC50 on CDK2 [1] and on CDK2 [3] were 0.327 µM and 0.0707 µM, respectively. The Dmax at CDK2 [2] fell in the range of 35 to 90%.

Regarding `O=C1CCC(N2Cc3cc(N4CC5(CN(Cc6cccc(S(=O)(=O)N7CCC(Nc8ncc9ccc(=O)n(C%10%11CC(C%10)C%11)c9n8)CC7)c6)C5)C4)ccc3C2=O)C(=O)N1` (stereo not drawn) [Compound 62, 3-(5-(6-(3-((4-((8-(bicyclo[1.1.1]pentan-1-yl)-7-oxo-7,8-dihydropyrido[2,3-d]pyrimidin-2-yl)-amino)piperidin-1-yl)sulfonyl)benzyl)-2,6-diazaspiro[3.3]heptan-2-yl)-1-oxoisoindolin-2-yl)-piperidine-2,6-dione], the results for the IC50 against CDK2 [1] and on CDK2 [3] were 0.284 µM and 0.0218 µM, respectively. The Dmax at CDK2 [2] was in the range of 35 to 90%.

As to `O=C1CCC(N2C(=O)c3cc(F)c(N4CCN(Cc5cccc(S(=O)(=O)N6CC[C@H](Nc7ncc8ccc(=O)n(C9CCCC9)c8n7)[C@H](F)C6)c5)CC4)cc3C2=O)C(=O)N1` (stereo partly drawn) [Compound 63, 5-(4-(3-(((3R,4S)-4-((8-cyclopentyl-7-oxo-7,8-dihydropyrido[2,3-d]pyrimidin-2-yl)amino)-3-fluoropiperidin-1-yl)sulfonyl)benzyl)piperazin-1-yl)-2-(2,6-dioxopiperidin-3-yl)-6-fluoroiso-indoline-1,3-dione], the values for the 50% inhibitory concentration (IC50) against CDK2 [1] and at CDK2 [3] were 0.265 µM and 0.18 µM, respectively. The Dmax on CDK2 [2] fell in the range of 35 to 90%.

On to `O=C1CCC(N2C(=O)c3cc(F)c(N4CCN(Cc5cccc(S(=O)(=O)N6CC[C@H](Nc7ncc8ccc(=O)n(C9CCCC9)c8n7)[C@@H](F)C6)c5)CC4)cc3C2=O)C(=O)N1` (stereo partly drawn) [Compound 65, 5-(4-(3-(((3S,4S)-4-((8-cyclopentyl-7-oxo-7,8-dihydropyrido[2,3-d]pyrimidin-2-yl)amino)-3-fluoropiperidin-1-yl)sulfonyl)benzyl)piperazin-1-yl)-2-(2,6-dioxopiperidin-3-yl)-6-fluoro-isoindoline-1,3-dione], for which the IC50 at CDK2 [1] worked out at 1.75 µM; on CDK2 [3], 6.44 µM. Moreover, the Dmax at CDK2 [2] lay in the range of 35 to 90%.
